Key:
[1] = compound: C1CC(C1)(C(=O)[O-])C(=O)[O-].N.N.[Pt+2] [Carboplatin]; conditions: max 10 µM
Procedure, shortened: (§1)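 Viability was measured with CellTiter-Glo 2.0 luminescence after 72 hours of dosing at a final DMSO of typically 0.2%, and scaled between blank-well and DMSO-well means. Beforehand, cancer cell lines sat 24 hours at 37°C and 5% CO2 in 1536-well plates in 7.5 μl DMEM/F12 or RPMI with 10% FBS. A non-linear mixed effects model fitted two-parameter logistic curves to the dose responses. The single-agent IC50 comes from these fits.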

[2] = compound: C1CN(CCC1(C(=O)N[C@@H](CCO)C2=CC=C(C=C2)Cl)N)C3=NC=NC4=C3C=CN4 [AZD5363]; conditions: max 10 µM
Procedure, shortened: as §1

[3] = compound: C=CCn1c(=O)c2cnc(Nc3ccc(N4CCN(C)CC4)cc3)nc2n1-c1cccc(C(C)(C)O)n1 [AZD1775]; conditions: max 3 µM
Procedure, shortened: as §1

[4] = compound: CC(=O)Nc1cccc(-n2c(=O)n(C3CC3)c(=O)c3c(Nc4ccc(I)cc4F)n(C)c(=O)c(C)c32)c1 [Trametinib]; conditions: max 1 µM
Procedure, shortened: as §1

[5] = compound: CC(=O)O[C@H]1C(=O)[C@@]2(C)[C@H]([C@H](OC(=O)c3ccccc3)[C@]3(O)C[C@H](OC(=O)[C@H](O)[C@@H](NC(=O)c4ccccc4)c4ccccc4)C(C)=C1C3(C)C)[C@]1(OC(C)=O)CO[C@@H]1C[C@@H]2O [Paclitaxel]; conditions: max 3 µM
Procedure, shortened: as §1

[6] = compound: CC(=O)c1c(C)c2cnc(Nc3ccc(N4CCNCC4)cn3)nc2n(C2CCCC2)c1=O [Palbociclib]; conditions: max 10 µM
Procedure, shortened: as §1

[7] = compound: CC(C)n1c(=O)n(C)c2cnc3cc(F)c(-c4ccc(OCCCN5CCCCC5)nc4)cc3c21 [AZD1390]; conditions: max 0.3 µM
Procedure, shortened: as §1

[8] = compound: CC1(C)CCC(CN2CCN(c3ccc(C(=O)NS(=O)(=O)c4ccc(NCC5CCOCC5)c([N+](=O)[O-])c4)c(Oc4cnc5[nH]ccc5c4)c3)CC2)=C(c2ccc(Cl)cc2)C1 [Venetoclax]; conditions: max 1 µM
Procedure, shortened: as §1

[9] = compound: CC1=C(C(=CC=C1)Cl)NC(=O)C2=CN=C(S2)NC3=CC(=NC(=N3)C)N4CCN(CC4)CCO [Dasatinib]; conditions: max 2 µM
Procedure, shortened: as §1

[10] = compound: CC1=CN2[C@@H](C1)C=NC3=CC(=C(C=C3C2=O)OC)OCCCCCOC4=C(C=C5C(=C4)N=C[C@@H]6CC(=CN6C5=O)C)OC [SG3199]; conditions: max 0.001 µM
Procedure, shortened: as §1

[11] = compound: CCN(CCO)CCCOc1ccc2c(Nc3cc(CC(=O)Nc4cccc(F)c4)[nH]n3)ncnc2c1 [AZD2811]; conditions: max 1 µM
Procedure, shortened: as §1

[12] = compound: CCc1c2c(nc3ccc(O)cc13)-c1cc3c(c(=O)n1C2)COC(=O)[C@]3(O)CC [SN-38]; conditions: max 0.3 µM
Procedure, shortened: as §1

[13] = compound: CN(C)CCCOc1ccc(-c2ccc3ncc4c(c3c2)n(C2CCOCC2)c(=O)n4C)cn1 [AZD0156]; conditions: max 3 µM
Procedure, shortened: as §1

[14] = compound: CN(CC[C@H](CSC1=CC=CC=C1)NC2=C(C=C(C=C2)S(=O)(=O)NC(=O)C3=CC=C(C=C3)N4CCC(CC4)[C@H](C5=CC=CC=C5C6=CC=C(C=C6)Cl)O)S(=O)(=O)C(F)(F)F)CCO [AZD4320]; conditions: max 1 µM
Procedure, shortened: as §1

[15] = compound: COc1cc(Nc2ncc3c(n2)-c2ccc(Cl)cc2C(c2c(F)cccc2OC)=NC3)ccc1C(=O)O [Alisertib]; conditions: max 10 µM
Procedure, shortened: as §1

[16] = compound: COc1cc([C@@H]2c3cc4c(cc3[C@@H](O[C@@H]3O[C@@H]5CO[C@@H](C)O[C@H]5[C@H](O)[C@H]3O)[C@H]3COC(=O)[C@H]23)OCO4)cc(OC)c1O [Etoposide]; conditions: max 10 µM
Procedure, shortened: as §1

[17] = compound: COc1cc2ncnc(Nc3ccc(F)c(Cl)c3)c2cc1OCCCN1CCOCC1 [Gefitinib]; conditions: max 10 µM
Procedure, shortened: as §1

[18] = compound: COc1cccc(OCCCN)c1-c1cc(Nc2cnc(C#N)cn2)n[nH]1 [Prexasertib]; conditions: max 1 µM
Procedure, shortened: as §1

[19] = compound: COc1cccc2c1C(=O)c1c(O)c3c(c(O)c1C2=O)C[C@@](O)(C(=O)CO)C[C@@H]3O[C@H]1C[C@H](N)[C@H](O)[C@H](C)O1 [Doxorubicin]; conditions: max 1 µM
Procedure, shortened: as §1

[20] = compound: COc1nnc2ccc(N3CCC(c4ccc(OCCN5CCN(C)C(=O)[C@H]5C)cc4)CC3)nn12 [AZD5153]; conditions: max 1 µM
Procedure, shortened: as §1

[21] = compound: CS(=O)(=O)CCNCc1ccc(-c2ccc3ncnc(Nc4ccc(OCc5cccc(F)c5)c(Cl)c4)c3c2)o1 [Lapatinib]; conditions: max 10 µM
Procedure, shortened: as §1

[22] = compound: C[C@@H](Nc1cc(F)cc(F)c1)c1cc(C(=O)N(C)C)cc2c(=O)cc(N3CCOCC3)oc12 [AZD8186]
Procedure, shortened: as §1

[23] = compound: C[C@@H](Oc1cc(-c2cnn(C3CCNCC3)c2)cnc1N)c1c(Cl)ccc(F)c1Cl [Crizotinib]; conditions: max 10 µM
Procedure, shortened: as §1

[24] = compound: C[C@@H](c1ccc2nccn2c1)n1nnc2ncc(-c3cnn(C)c3)nc21 [Savolitinib]; conditions: max 1 µM
Procedure, shortened: as §1

[25] = compound: C[C@@H]1COCCN1C2=NC(=NC(=C2)C3(CC3)[S@](=N)(=O)C)C4=C5C=CNC5=NC=C4 [AZD6738]; conditions: max 10 µM
Procedure, shortened: as §1

[26] = compound: Cc1c2c(nn1C)CSCc1cc(n(C)n1)CSc1cc(c3ccccc3c1)OCCCc1c(C(=O)O)n(C)c3c-2c(Cl)ccc13 [AZD5991]; conditions: max 1 µM
Procedure, shortened: as §1

[27] = compound: Cc1cc2ncnn2cc1Nc1ncc2c(n1)n(C1CCOCC1)c(=O)n2C [AZD7648]; conditions: max 10 µM
Procedure, shortened: as §1

[28] = compound: Cc1nc(-c2cn3c(n2)-c2ccc(-c4cnn(C(C)(C)C(N)=O)c4)cc2OCC3)n(C(C)C)n1 [Taselisib]; conditions: max 10 µM
Procedure, shortened: as §1

[29] = compound: Cn1cnc2c(F)c(Nc3ccc(Br)cc3Cl)c(C(=O)NOCCO)cc21 [Selumetinib]; conditions: max 10 µM
Procedure, shortened: as §1

[30] = compound: N#Cc1cnc(Nc2cc(NC[C@H]3CNCCO3)c(C(F)(F)F)cn2)cn1 [SRA737]; conditions: max 10 µM
Procedure, shortened: as §1

[31] = compound: NC1(c2ccc(-c3nc4ccn5c(=O)[nH]nc5c4cc3-c3ccccc3)cc2)CCC1 [MK-2206]; conditions: max 10 µM
Procedure, shortened: as §1

[32] = compound: Nc1ccn([C@@H]2O[C@H](CO)[C@@H](O)C2(F)F)c(=O)n1 [Gemcitabine]; conditions: max 0.3 µM
Procedure, shortened: as §1

[33] = compound: O=C(Nc1ccc2[nH]nc(-c3ccncc3)c2c1)[C@@H]1CCN(CC(=O)N2CCN(c3ccc(-c4ncccn4)cc3)CC2)C1; conditions: max 5 µM
Procedure, shortened: as §1

[34] = compound: O=C(c1cc(Cc2n[nH]c(=O)c3ccccc23)ccc1F)N1CCN(C(=O)C2CC2)CC1 [Olaparib]; conditions: max 10 µM
Procedure, shortened: as §1

[35] = compound: O=c1[nH]cc(F)c(=O)[nH]1 [5-Fluorouracil]; conditions: max 20 µM
Procedure, shortened: as §1

[36] = compound: C1CN(CCC1(C(=O)N[C@@H](CCO)C2=CC=C(C=C2)Cl)N)C3=NC=NC4=C3C=CN4 [Capivasertib]; conditions: max 10 µM
Procedure, shortened: as §1

Cell Line | IC50, cell viability 72 h [1] [µM] | IC50, cell viability 72 h [2] [µM] | IC50, cell viability 72 h [3] [µM] | IC50, cell viability 72 h [4] [µM] | IC50, cell viability 72 h [5] [µM] | IC50, cell viability 72 h [6] [µM] | IC50, cell viability 72 h [7] [µM] | IC50, cell viability 72 h [8] [µM] | IC50, cell viability 72 h [9] [µM] | IC50, cell viability 72 h [10] [µM] | IC50, cell viability 72 h [11] [µM] | IC50, cell viability 72 h [12] [µM] | IC50, cell viability 72 h [13] [µM] | IC50, cell viability 72 h [14] [µM] | IC50, cell viability 72 h [15] [µM] | IC50, cell viability 72 h [16] [µM] | IC50, cell viability 72 h [17] [µM] | IC50, cell viability 72 h [18] [µM] | IC50, cell viability 72 h [19] [µM] | IC50, cell viability 72 h [20] [µM] | IC50, cell viability 72 h [21] [µM] | IC50, cell viability 72 h ([22]; max 10 µM) [µM] | IC50, cell viability 72 h [23] [µM] | IC50, cell viability 72 h [24] [µM] | IC50, cell viability 72 h [25] [µM] | IC50, cell viability 72 h [26] [µM] | IC50, cell viability 72 h [27] [µM] | IC50, cell viability 72 h [28] [µM] | IC50, cell viability 72 h [29] [µM] | IC50, cell viability 72 h [30] [µM] | IC50, cell viability 72 h [31] [µM] | IC50, cell viability 72 h [32] [µM] | IC50, cell viability 72 h [33] [µM] | IC50, cell viability 72 h [34] [µM] | IC50, cell viability 72 h [35] [µM] | IC50, cell viability 72 h [36] [µM] | IC50, cell viability 72 h ([22]; max 3 µM) [µM]
NCI-H2731 (Mesothelioma) | > 10 | > 10 | > 3 | > 1 | 1.78 | > 10 | > 0.3 | > 1 | > 2 | > 0.001 | > 1 | > 0.3 | > 3 | > 1 | > 10 | > 10 | > 10 | > 1 | > 1 | > 1 | > 10 | > 10 | > 10 | > 1 | > 10 | > 1 | > 10 | > 10 | > 10 | > 10 | > 10 | > 0.3 | > 5 | > 10 | > 20 |  | 
CW-2 (Colorectal Carcinoma) | > 10 | > 10 | 2.72 | > 1 | 1.59 | > 10 | > 0.3 | > 1 | > 2 | > 0.001 | > 1 | 0.15 | > 3 | > 1 | > 10 | > 10 | > 10 | > 1 | > 1 | 0.861 | > 10 | > 10 | > 10 | > 1 | > 10 | > 1 | > 10 | > 10 | > 10 | > 10 | > 10 | 0.246 | > 5 | > 10 | > 20 |  | 
MOG-G-CCM (Low Grade Glioma) | > 10 | > 10 | > 3 | > 1 | 0.00497 | > 10 | > 0.3 | > 1 | 0.354 | > 0.001 | > 1 | 0.293 | > 3 | > 1 | 1.93 | > 10 | > 10 | 0.157 | > 1 | 0.449 | > 10 | 4.39 | > 10 | > 1 | > 10 | > 1 | > 10 | 8.27 | > 10 | > 10 | > 10 | > 0.3 | > 5 | > 10 | > 20 |  | 
COR-L279 (Small Cell Lung Carcinoma) | > 10 | 9.25 | 1.6 | > 1 | < 0.003 | > 10 | > 0.3 | > 1 | > 2 | > 0.001 | 0.093 | 0.00169 | > 3 | 0.198 | 0.952 | 0.843 | > 10 | 0.0979 | 0.0421 | 0.178 | 6.64 | 7.51 | 3.71 | > 1 | 7.38 | > 1 | > 10 | 2.13 | > 10 | > 10 | 3.15 | 0.0346 | > 5 | 3.43 | > 20 |  | 
IM-95 (Gastric Carcinoma) |  |  | > 3 | > 1 |  | > 10 | > 0.3 | > 1 | > 2 | > 0.001 | > 1 | > 0.3 | > 3 | 0.398 | > 10 |  | > 10 | > 1 | > 1 | > 1 | > 10 |  | > 10 | > 1 | > 10 | 0.276 | > 10 | 7.24 | > 10 |  | > 10 |  |  | > 10 |  | > 10 | > 3

From the supplement of paper PMC11061612
